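Five compound concentrations were applied to cells in 96-well plates for 48 hours; endpoints were derived by simple linear interpolation of the resulting dose-response curve. GI50 is the concentration that inhibits growth by half.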 Activity calls are given as the source filed them. Cut-off read from the data, not from the text of the source: active = GI50 up to about 1.1 µM and inactive = higher.

Some test systems named below: COLO 205; MDA-MB-435; NCI-H460; HT-29; SK-MEL-2; PC-3; U-251; 786-0; MCF7; T47D; NCI/ADR-RES; SF-295; SF-268; SK-OV-3; A549; NCI-H23; MDA-MB-231; UACC-62; HL-60; OVCAR-5.
Experiment in all cases: NCI tumour cell line growth inhibition, 48 h

For the compound `COc1ccc2c(c1)N=C1CSC(c3cc([N+](=O)[O-])ccc3Cl)N1C2` (centres undefined), the GI50 with COLO 205 is 30.1 µM (inactive); with MDA-MB-435, 15.6 µM (inactive); in the assay on NCI-H460, 19.4 µM (inactive); with HT-29, 23.6 µM (inactive); in the assay with SK-MEL-2, 18.2 µM (inactive); in the assay on PC-3, 21.5 µM (inactive). In addition, the GI50 was 25.6 µM (inactive) with U-251; 26.2 µM (inactive) with 786-0; 14.8 µM (inactive) in the assay on MCF7; 29.5 µM (inactive) in the assay on T47D; 23.4 µM (inactive) in the assay on NCI/ADR-RES; 30.5 µM (inactive) with SF-295. In addition, the GI50 was 34.5 µM (inactive) in the assay on SF-268; 25.2 µM (inactive) with SK-OV-3; 30.9 µM (inactive) in the assay with A549; 22.2 µM (inactive) with NCI-H23; 20.8 µM (inactive) with MDA-MB-231; 18.8 µM (inactive) with UACC-62. Moreover, the GI50 with HL-60 is 22.5 µM (inactive); with OVCAR-5 it was 24 µM (inactive).
With `CCCCCCCCCCCCCC(=O)O.O=CC(O)C(O)C(OC1OC(CO)C(O)C(O)C1O)C(O)CO` (centres undefined), the GI50 was 73.5 µM (inactive) in the assay with COLO 205; 40.6 µM (inactive) in the assay on MDA-MB-435; > 100 µM (inactive) in the assay on NCI-H460; > 100 µM (inactive) in the assay on HT-29; > 100 µM (inactive) in the assay on SK-MEL-2; 73.5 µM (inactive) with PC-3. The GI50 in the assay with U-251 is 35 µM (inactive); in the assay on 786-0, > 100 µM (inactive); in the assay on MCF7, > 100 µM (inactive); with T47D, > 100 µM (inactive); with NCI/ADR-RES, > 100 µM (inactive); with SF-295, 73.1 µM (inactive). In addition, the GI50 with SF-268 is > 100 µM (inactive); in the assay on SK-OV-3, > 100 µM (inactive); in the assay with A549, 80.2 µM (inactive); in the assay with NCI-H23 it was > 100 µM (inactive); in the assay on MDA-MB-231, 28.8 µM (inactive); in the assay on UACC-62, 74.6 µM (inactive). Moreover, the GI50 was 18.7 µM (inactive) with HL-60 and > 100 µM (inactive) with OVCAR-5.
Take `Cc1ccc(N)c(S)c1`: the GI50 with COLO 205 is 22.7 µM (inactive); in the assay with MDA-MB-435 it was 19 µM (inactive); in the assay on NCI-H460, 22 µM (inactive); with HT-29, 19.4 µM (inactive); in the assay with SK-MEL-2, 17.2 µM (inactive); in the assay on PC-3, 15.3 µM (inactive). Moreover, the GI50 in the assay with U-251 was 15.2 µM (inactive); in the assay on 786-0, 16.1 µM (inactive); with MCF7, 18.5 µM (inactive); in the assay with T47D it was 14.8 µM (inactive); in the assay with NCI/ADR-RES, 24 µM (inactive); with SF-295, 18 µM (inactive). The GI50 was 20.8 µM (inactive) with SF-268; 27.9 µM (inactive) in the assay with SK-OV-3; 21.5 µM (inactive) with A549; 17.7 µM (inactive) with NCI-H23; 17.1 µM (inactive) in the assay on MDA-MB-231; 17.6 µM (inactive) with UACC-62. Also, the GI50 was 25.2 µM (inactive) in the assay on HL-60 and 22.3 µM (inactive) with OVCAR-5.
For `NC(=O)NCCCC(NC(=O)OCCCCCn1ccc(=O)[nH]c1=O)C(=O)O` (centres undefined), the GI50 in the assay on COLO 205, in the assay on MDA-MB-435, in the assay with NCI-H460, in the assay on HT-29, in the assay on SK-MEL-2 and with PC-3 was > 100 µM (inactive) throughout. For the same compound, the GI50 with U-251, with 786-0, in the assay on MCF7, with T47D, with NCI/ADR-RES and with SF-295 was > 100 µM (inactive) each time. The GI50 with SF-268, in the assay on SK-OV-3, in the assay with A549, in the assay on NCI-H23, in the assay on MDA-MB-231 and with UACC-62 was > 100 µM (inactive) each time. Also, the GI50 in the assay with HL-60 and in the assay on OVCAR-5 was > 100 µM (inactive) throughout.
For `O=C1c2ccccc2C(=O)N1c1nc(-c2ccc(Cl)cc2)cc(N2N=C(c3ccc(Br)cc3)CC2c2ccccc2)n1` (centres undefined), the GI50 in the assay on COLO 205 was 1.9 µM (inactive); in the assay on MDA-MB-435, 0.745 µM (active); with NCI-H460 it was 4.36 µM (inactive); in the assay on HT-29, 2.94 µM (inactive); with SK-MEL-2, 3.26 µM (inactive); in the assay with PC-3 it was 3.93 µM (inactive). For the same compound, the GI50 was 1.67 µM (inactive) with U-251; 4.93 µM (inactive) in the assay on 786-0; 1.3 µM (inactive) with MCF7; 1.88 µM (inactive) in the assay with T47D; 1.97 µM (inactive) in the assay on NCI/ADR-RES; 0.91 µM (active) with SF-295. Moreover, the GI50 was 2.7 µM (inactive) in the assay with SF-268; 6.34 µM (inactive) in the assay on SK-OV-3; 3.24 µM (inactive) with A549; 5.37 µM (inactive) with NCI-H23; 4.07 µM (inactive) with MDA-MB-231; 2.72 µM (inactive) in the assay with UACC-62. Moreover, the GI50 was 2.9 µM (inactive) with HL-60 and 1.04 µM (active) in the assay with OVCAR-5.
`CC(C)(C)OC(=O)NC(Cc1ccc(OCc2ccccc2)cn1)C(=O)N1CCCCC1` (centres undefined): the GI50 was 18.6 µM (inactive) in the assay on COLO 205; 19.4 µM (inactive) in the assay on MDA-MB-435; 33.7 µM (inactive) in the assay with NCI-H460; 32 µM (inactive) with HT-29; 25.5 µM (inactive) with SK-MEL-2; 22.2 µM (inactive) in the assay with PC-3. The GI50 in the assay on U-251 is 42.4 µM (inactive); in the assay on 786-0 it was 56 µM (inactive); in the assay on MCF7, 31.6 µM (inactive); in the assay on T47D it was 12.1 µM (inactive); in the assay on NCI/ADR-RES it was 20.9 µM (inactive); with SF-295 it was 30.5 µM (inactive). Also, the GI50 with SF-268 was 65.6 µM (inactive); in the assay with SK-OV-3 it was 58.6 µM (inactive); in the assay with A549, 49.7 µM (inactive); in the assay with NCI-H23, 31.1 µM (inactive); in the assay with MDA-MB-231 it was 43.4 µM (inactive); in the assay on UACC-62, 29.1 µM (inactive). The results for the GI50 in the assay with HL-60 and in the assay with OVCAR-5 were 27 µM (inactive) and 65.2 µM (inactive), respectively.
As for `COP(=O)(OC)C(C)(C)NC(=O)NC(F)(F)F`, the GI50 in the assay with COLO 205, in the assay on MDA-MB-435, with NCI-H460, in the assay with HT-29, in the assay on SK-MEL-2 and in the assay with PC-3 was > 100 µM (inactive) in each case. Besides, the GI50 with U-251, in the assay with 786-0, in the assay with MCF7, in the assay with T47D, in the assay on NCI/ADR-RES and in the assay on SF-295 was > 100 µM (inactive) throughout. In addition, the GI50 with SF-268, with SK-OV-3, in the assay on A549, with NCI-H23, with MDA-MB-231 and with UACC-62 was > 100 µM (inactive) each time. Further, the GI50 in the assay on HL-60 and in the assay on OVCAR-5 was > 100 µM (inactive) in each case.
For the compound `Cc1cc(N2CCN(C)CC2)n2nc(-c3ccc(Cl)cc3)nc2n1`, the GI50 in the assay with COLO 205 was 81.7 µM (inactive); with MDA-MB-435, > 100 µM (inactive); with NCI-H460 it was 50.7 µM (inactive); in the assay with HT-29 it was 69.5 µM (inactive); in the assay on SK-MEL-2 it was 74.8 µM (inactive); in the assay with PC-3 it was > 100 µM (inactive). For the same compound, the GI50 in the assay on U-251 was > 100 µM (inactive); in the assay with 786-0, 50.7 µM (inactive); in the assay on MCF7, > 100 µM (inactive); in the assay on T47D, > 100 µM (inactive); in the assay with NCI/ADR-RES it was 90.6 µM (inactive); in the assay on SF-295, 91.2 µM (inactive). Besides, the GI50 was > 100 µM (inactive) in the assay on SF-268; > 100 µM (inactive) in the assay with SK-OV-3; > 100 µM (inactive) with A549; > 100 µM (inactive) in the assay on NCI-H23; > 100 µM (inactive) in the assay on MDA-MB-231; 75.3 µM (inactive) with UACC-62. Moreover, the GI50 in the assay with HL-60 is 27.3 µM (inactive); in the assay with OVCAR-5 it was > 100 µM (inactive).
In the case of `COC(=O)C(Cc1ccccc1I)C1=CCC2(CC1)OCCO2` (centres undefined), the GI50 with COLO 205 is 28.4 µM (inactive); in the assay on MDA-MB-435, 20 µM (inactive); in the assay on NCI-H460, 33.3 µM (inactive); in the assay with HT-29 it was 31.8 µM (inactive); in the assay with SK-MEL-2, 25.5 µM (inactive); in the assay on PC-3, 26.9 µM (inactive). In addition, the GI50 in the assay on U-251 was 45.4 µM (inactive); with 786-0, 34.3 µM (inactive); in the assay on MCF7 it was 27.7 µM (inactive); with T47D, 12.3 µM (inactive); with NCI/ADR-RES it was 18.6 µM (inactive); in the assay with SF-295 it was 29.2 µM (inactive). Further, the GI50 is 41.3 µM (inactive) in the assay with SF-268; 36.9 µM (inactive) in the assay on SK-OV-3; 22.4 µM (inactive) in the assay on A549; 26.4 µM (inactive) with NCI-H23; 54.5 µM (inactive) with MDA-MB-231; 20 µM (inactive) with UACC-62. Also, the GI50 is 18.7 µM (inactive) in the assay with HL-60 and 11.3 µM (inactive) with OVCAR-5.
For the compound `c1ccc([P+](CCCCCC[P+](c2ccccc2)(c2ccccc2)c2ccccc2)(c2ccccc2)c2ccccc2)cc1`, the GI50 in the assay on COLO 205 was 2.68 µM (inactive); with MDA-MB-435 it was 15.2 µM (inactive); in the assay with NCI-H460, 9.38 µM (inactive); in the assay on HT-29 it was 7.24 µM (inactive); in the assay on PC-3, 8.51 µM (inactive); in the assay with U-251 it was 0.798 µM (active). Also, the GI50 in the assay on 786-0 is 24 µM (inactive); in the assay on MCF7, 5.94 µM (inactive); in the assay on T47D, 4.92 µM (inactive); in the assay with NCI/ADR-RES, > 100 µM (inactive); in the assay on SF-295 it was 59.4 µM (inactive); in the assay with SF-268, 3.49 µM (inactive). For the same compound, the GI50 was 62.2 µM (inactive) in the assay with SK-OV-3; 7.41 µM (inactive) in the assay on A549; 4.71 µM (inactive) in the assay with NCI-H23; 12.8 µM (inactive) in the assay with MDA-MB-231; 18 µM (inactive) in the assay on UACC-62; 10.6 µM (inactive) in the assay with HL-60. In the assay with OVCAR-5, the GI50 is 34.3 µM (inactive).
